What was measured:
[1] = test system: M-tropic R5 HIV lab-strain BaL; test: In vitro infection of monocyte-derived macrophages (MDM) with HIV BaL, p24 ELISA / TCID50; format: cell-based; conditions: MDM cultures
From the text: (§1) For in vitro infection experiments, monocytes were obtained from buffy coats of healthy donors of the Blood Transfusion Center of Antwerp (Rode Kruis Vlaanderen, Belgium) by counterflow elutriation, as described previously (Van Herrewege et al., 2002). These cells were then differentiated to monocyte-derived macrophages (MDM) during seven days in RPMI 1640 medium (Bio-Whittaker, Verviers, Belgium) supplemented with 10% bovine fetal calf serum (Biochrom, Berlin, Germany), penicillin (100 U/ml) and streptomycin (100 μg/ml) (Roche Diagnostics, Mannheim, Germany) and 40 ng/ml M-CSF (PeproTech, London, United Kingdom) at 37° C. and 5.0% CO2. Half the medium was replaced after four days. Cells were then harvested and used for experiments in the same medium (without M-CSF).
(§2) For infection experiments, MDM were plated in 96-well plates at 7.5×10^5 cells/ml and pre-treated with recombinant visfatin (200 ng/ml) for 1 hour at 37° C. and 5.0% CO2. Then, virus was added in six-fold and incubated for 2 hours, again at 37° C. and 5.0% CO2. Cells were then washed 3× to remove unbound virus and incubated for 14 days. Productive infection was monitored via an in-house-developed p24 antigen ELISA, as described elsewhere (Beirnaert et al., 1998).
This viral infectivity can be quantified by calculating the TCID50 (Tissue Culture Infectious Dose 50%, i.e., the dose of virus that has a 50% chance of infecting a cell culture) values of the viral stocks. Addition of visfatin reduces the TCID50 values of BaL by approximately one log in both PBMC and MDM cultures, signifying a 90% reduction in viral infectivity (FIG. 7, Panel A).

[2] = test system: M-tropic R5 HIV lab-strain BaL; test: In vitro infection of PBMC cultures with HIV BaL, p24 ELISA / TCID50; format: cell-based
[3] = test system: T-tropic X4 HIV lab-strain IIIB (=HxB2); test: In vitro infection with X4 HIV lab-strain IIIB, viral infectivity (TCID50); format: cell-based; conditions: same experiment as for BaL
Experimental: as §2
This signifies that by selectively inhibiting R5 and not X4 HIV, visfatin contributes to the HIV co-receptor switch seen in ca. 50% of all patients in which the co-receptor usage of the dominant quasispecies within the patient switches from the moderately virulent R5 to the more aggressive X4, leading to increased progression to AIDS.

[4] = test system: X4 strain of the 968 clone (968-1); test: In vitro infection of MDM with clinical isolate 968-1 (X4), viral titer (TCID50); format: cell-based, HIV
From the text: as §1, §2
R5 and X4 strains of the 968 viral clone were isolated from one patient, and differ only in co-receptor usage.

[5] = 200 ng/ml PBEF1, 14 days of culture
[6] = PBMC cultures, 200 ng/ml PBEF1, 14 days of culture

| Molecule | reduction in viral infectivity [1, 5] [%] | reduction of TCID50 value of BaL [1, 5] | viral infectivity (productive infection, p24 secretion) ([1]; recombinant visfatin (200 ng/ml) added prior to infection with BaL) | reduction in viral infectivity [2, 6] [%] | reduction of TCID50 value of BaL [2, 6] | viral infectivity (productive infection, p24 secretion) ([2]; activated PBMC cultures, recombinant visfatin added prior to infection with BaL) | effect on viral infectivity of X4 strain IIIB [3] | viral titer of X4 clinical isolate in MDM [4, 5] | productive infection of MDM by X4 clinical isolate 968-1 ([4]; strain incapable of infecting untreated MDM) | infectivity of HIVBaL (TCID50) ([2]; PBMC cultures, 100 μM nicotinamide mononucleotide, 14 days of culture) |
| --- | --- | --- | --- | --- | --- | --- | --- | --- | --- | --- |
| visfatin: Recombinant visfatin (PBEF1, nicotinamide phosphoribosyltransferase) protein obtained from PeproTech | 90 | approximately one | decreases the viral infectivity | 90 | approximately one | decreases the viral infectivity | does not mediate this effect | increased the viral titer | allowed the 968-1 clone to establish a productive infection | – |
| NC(=O)c1ccc[n+]([C@@H]2O[C@H](COP(=O)([O-])O)[C@@H](O)[C@H]2O)c1 [NMN, nicotinamide mononucleotide, reference compound] | – | – | – | – | – | – | – | – | – | reduces the infectivity |
